Results on 14 molecules are retold here after patent publication US10793594B2, “Antimicrobial compounds and/or modulators of microbial infections and methods of using the same” (Indiana University Research and Technology Corporation, priority 2017, dated 2020).

Where a SMILES comes first, the peptide text is derived from it. [ ]: non-standard residue; d: D form. ξ: configuration not given here. ξPhe(3-F) = NC(Cc1cccc(F)c1)C(=O)O; ξPhe(4-F) = NC(Cc1ccc(F)cc1)C(=O)O

Assay [1] relates to Pseudomonas aeruginosa (PA14). Kind of assay: Pa biofilm formation/growth inhibition assay (crystal violet). Format: cell-based. The following applies: phenylalanine deficient biofilm assay.
A further assay has as its system Acinetobacter baumannii. Briefly: CO-ADD preliminary screen and hit confirmation against Acinetobacter baumannii. Format: cell-based. Conditions: for hit confirmation against Acinetobacter baumannii: hit confirmation (HC), separated diastereomers; for activity against Acinetobacter baumannii in the preliminary screen: preliminary screen (PS). How it is done: (§1) Briefly, CO-ADD, The Community for Open Antimicrobial Drug Discovery, is a global open-access screening initiative launched in February 2015 to uncover significant and rich chemical diversity held outside of corporate screening collections. For screening, about 1 mg of pure compound is required and the compounds must be soluble in DMSO. In the preliminary screening, compounds are tested against some ESKAPE pathogens, including, but are not limited to, E. coli, K. pneumoniae, A. baumannii, P. aeruginosa, S. aureus (MRSA), as well as the fungi, for example, C. neoformans and C. albicans. The screen uses a single concentration (e.g., […]) and provides initial activity data to select compounds for further more detailed screening. Active compounds from the preliminary screening are tested in dose response antimicrobial assays to confirm their activity. Active compounds are screened for adverse effects, such as cytotoxicity, critical micelle concentration and membrane depolarization, as well as for their purity. Then, the hit compound is tested against a broader panel of microbes with multidrug-resistant (MDR) and pan-resistant bacterial strains and clinical isolates, with different co-factors (such as serum or lung surfactant). The hit validation includes initial ADMET screening, including haemolysis, microsome and plasma stability and protein binding. See CO-ADD website for more details.
(§2) The minimum inhibitory concentration (MIC) was determined following the CLSI (Clinical Laboratory and Standards Institute) guidelines, identifying the lowest concentration at which full inhibition of the bacteria or fungi has been detected. […] Note that MIC values are discrete values based on the concentration in a specific well.
(§3) Selection of Hits: Samples with MIC (≤16 μg/mL or ≤10 μM) are declared as a hit. For toxicity (cytotoxicity and haemolytic activity) all sample/s with CC50/HC10≤maximum tested concentration are considered active, or toxic. Since the maximum tested concentration is the same for toxicity and antimicrobial activity, no therapeutic index (MIC/CC50 or MIC/HC10) can be calculated and all sample/s with toxic activity are flagged.
Referring now to FIGS. 52 and 53, inhibition of bacterial growth was determined measuring absorbance at 600 nm (OD600), using a Tecan M1000 Pro monochromator plate reader. The percentage of growth inhibition was calculated for each well, using the negative control (media only) and positive control (bacteria without inhibitors) on the same plate as references.
Samples were prepared in DMSO and water to a final testing concentration of 32 μg/mL or 20 μM and serially diluted 1:2 fold for 8 times. Each sample concentration was prepared in 384-well plates, non-binding surface plate (NBS; Corning 3640) for each bacterial/fungal strain or Tissue-culture treated (TC-treated; Corning 3712/3764) black for mammalian cell types, all in duplicate (n=2), and keeping the final DMSO concentration to a maximum of 0.5% DMSO. All the sample preparation was done using liquid handling robots.
For the antibacterial screening, all bacteria were cultured in Cation-adjusted Mueller Hinton broth (CAMHB) at 37° C. overnight. A sample of each culture was then diluted 40-fold in fresh broth and incubated at 37° C. for 1.5-3 h. The resultant mid-log phase cultures were diluted (CFU/mL measured by OD600), then added to each well of the compound containing plates, giving a cell density of 5×10^5 CFU/mL and a total volume of 50 μL. All the plates were covered and incubated at 37° C. for 18 h without shaking.

Assay [2] has as its system Ca and/or Cn (Candida albicans, Cryptococcus neoformans). Kind of assay: CO-ADD preliminary screen and hit confirmation against fungi. Format: cell-based. Conditions: two replicated lots, mixtures of enantiomers or diastereomers; for preliminary activity against Ca and/or Cn (preliminary screen): single concentration. How it is done:
as §1, §2, §3
Growth inhibition of C. albicans was determined measuring absorbance at 530 nm (OD530), while the growth inhibition of C. neoformans was determined measuring the difference in absorbance between 600 and 570 nm (OD600-570), after the addition of resazurin (0.001% final concentration) and incubation at 35° C. for additional 2 h. The absorbance was measured using a Biotek Synergy HTX plate reader. The percentage of growth inhibition was calculated for each well, using the negative control (media only) and positive control (bacteria without inhibitors) on the same plate as references. Percentage growth inhibition of an individual sample is calculated based on Negative controls (media only) and Positive Controls (bacterial/fungal media without inhibitors). Negative inhibition values indicate that the growth rate (or OD600) is higher compared to the Negative Control (Bacteria/fungi only, set to 0% inhibition). The growth rates for all bacteria and fungi has a variation of −/+10%, which is within the reported normal distribution of bacterial/fungal growth.
In addition, two values are used as quality controls for individual plates: Z′-Factor [1−(3*(sd(NegCtrl)+sd(PosCtrl))/(average(PosCtrl)−average(NegCtrl)))] and Standard Antibiotic controls at different concentrations (>MIC and <MIC). […] Active samples are defined as those with inhibition values equal to or above 80% and abs(Z-Score) above 12.51 for either replicate (n=2 on different plates) were classed as active. Partially active compounds are defined as those with inhibition values between 50.9%-79.9% or abs(Z-Score) below 12.51.
Samples were prepared in DMSO and water to a final testing concentration of 32 μg/mL or 20 μM and serially diluted 1:2 fold for 8 times. […]

Assay [3] deals with Cryptococcus neoformans (Cn). Briefly: CO-ADD antimicrobial screening, growth of Cryptococcus neoformans (MIC). Format: cell-based. How it is done: Briefly, CO-ADD, The Community for Open Antimicrobial Drug Discovery, is a global open-access screening initiative launched in February 2015 to uncover significant and rich chemical diversity held outside of corporate screening collections. For screening, about 1 mg of pure compound is required and the compounds must be soluble in DMSO. In the preliminary screening, compounds are tested against some ESKAPE pathogens, including, but are not limited to, E. coli, K. pneumoniae, A. baumannii, P. aeruginosa, S. aureus (MRSA), as well as the fungi, for example, C. neoformans and C. albicans. The screen uses a single concentration (e.g., […]) and provides initial activity data to select compounds for further more detailed screening. Active compounds from the preliminary screening are tested in dose response antimicrobial assays to confirm their activity. […]
The minimum inhibitory concentration (MIC) was determined following the CLSI (Clinical Laboratory and Standards Institute) guidelines, identifying the lowest concentration at which full inhibition of the bacteria or fungi has been detected. […]
Fungi strains were cultured for 3 days on Yeast Extract-Peptone Dextrose (YPD) agar at 30° C. A yeast suspension of 1×106 to 5×10^6 CFU/mL (as determined by OD530) was prepared from five colonies. […]

In the next assay the test system is bacterial biofilms. Conditions: cited from earlier work.

As to `C[C@@H](O)[C@H](N)C(=O)NC(Cc1ccc(F)cc1)C(=O)O` (stereo partly drawn) [compound 108, (2R,2S)-[((2S,3R)-2-amino-3-hydroxybutanamido)]-3-(4-fluorophenyl)propanoic acid] (H-Thr-[ξPhe(4-F)]-OH), the “ability to inhibit the growth of P. aeruginosa (Pa) in a biofilm assay” value in assay [1] is “had shown activity”. For `C[C@H](N)C(=O)N[C@@H](Cc1ccc(F)cc1)C(=O)O` (single isomer, unassigned) [25a], in the assay on Acinetobacter baumannii, the “hit confirmation against Acinetobacter baumannii” value is “hit confirmation was observed” and the “activity against Acinetobacter baumannii in the preliminary screen” value (“activity against Acinetobacter baumannii” for short) is reported as “not seen”. Take `NCC(=O)NC(Cc1ccc(F)cc1)C(=O)O` [compound 30, (2R,2S)-[2-(2-aminoacetamido)]-3-(4-fluorophenyl)propanoic acid] (H-Gly-[ξPhe(4-F)]-OH): the “preliminary activity against Ca and/or Cn (preliminary screen)” value (“preliminary activity … (preliminary screen)” for short) in assay [2] is “preliminary activity”. Still for that read-out and setting: in the case of `N[C@H](C(=O)NC(Cc1cccc(F)c1)C(=O)O)c1ccccc1` (stereo partly drawn) [compound 52, (2R,2S)-[2-((S)-2-amino-2-phenylacetamido)]-3-(3-fluorophenyl)propanoic acid] it was “preliminary activity”; in that of `NCC(=O)NC(Cc1cccc(F)c1)C(=O)O` [compound 43, (2R,2S)-[2-(2-aminoacetamido)]-3-(3-fluorophenyl)propanoic acid] (H-Gly-[ξPhe(3-F)]-OH), “preliminary activity”.

As for `C[C@H](N)C(=O)NC(Cc1ccc(F)cc1)C(=O)O` (stereo partly drawn) [compound 25, (2R,2S)-[2-((S)-2-aminopropanamido)]-3-(4-fluorophenyl)propanoic acid], the “inhibitory effects on the growth of Cryptococcus neoformans (Cn)” value in assay [3] is reported as “exhibited inhibitory effects”. Further, the “ability to inhibit the growth of P. aeruginosa (Pa) in a biofilm assay” value in assay [1] is given as “potent ability to inhibit the growth”. The “activity against Ca and/or Cn confirmed (hit confirmation)” value (from here on “activity against Ca and/or Cn confirmed”) in assay [2] is reported as “confirmed”.

As to `C[C@H](N)C(=O)N[C@@H](Cc1cccc(F)c1)C(=O)O` (single isomer, unassigned) [44a], in the assay on Acinetobacter baumannii, the “hit confirmation against Acinetobacter baumannii” value is “hit confirmation was observed” and the “activity against Acinetobacter baumannii” value is “not seen”. On to `O=C(O)C(Cc1cccc(F)c1)NC(=O)[C@@H]1CCCN1` (stereo partly drawn) [compound 48, (2R,2S)-[3-(3-fluorophenyl)]-2-((S)-pyrrolidine-2-carboxamido)propanoic acid] (H-Pro-[ξPhe(3-F)]-OH), for which, in assay [2], the “preliminary activity … (preliminary screen)” value was “preliminary activity”. Same read-out and setting: in the case of `CC(C)C[C@H](N)C(=O)NC(Cc1cccc(F)c1)C(=O)O` (stereo partly drawn) [compound 46, (2R,2S)-[2-((S)-2-amino-4-methylpentanamido)]-3-(3-fluorophenyl)propanoic acid] it was “preliminary activity”. Regarding `N[C@@H](Cc1ccc(O)cc1)C(=O)N[C@@H](Cc1cccc(F)c1)C(=O)O` (single isomer, unassigned) [45a], in the assay on Acinetobacter baumannii, the “hit confirmation against Acinetobacter baumannii” value is on record as “hit confirmation was observed” and the “activity against Acinetobacter baumannii” value is “not seen”. For `N[C@@H](Cc1ccc(O)cc1)C(=O)NC(Cc1cccc(F)c1)C(=O)O` (stereo partly drawn) [compound 45, (2R,2S)-[2-((S)-2-amino-3-(4-hydroxyphenyl)propanamido)]-3-(3-fluorophenyl)propanoic acid], the “preliminary activity … (preliminary screen)” value in assay [2] was “preliminary activity”. With `C[C@H](N)C(=O)NC(Cc1ccccc1F)C(=O)O` (stereo partly drawn) [compound 36, (2R,2S)-[2-((S)-2-aminopropanamido)-3-(2-fluorophenyl)]propanoic acid], in assay [3], the “inhibitory effects on the growth of Cryptococcus neoformans (Cn)” value is reported as “exhibited inhibitory effects”. The “ability to inhibit the growth of P. aeruginosa (Pa) in a biofilm assay” value in assay [1] is reported as “potent ability to inhibit the growth”. Besides, the “activity against Ca and/or Cn confirmed” value in assay [2] is reported as “confirmed”. As for `C[C@H](N)C(=O)NC(Cc1cccc(F)c1)C(=O)O` (stereo partly drawn) [compound 44, (2R,2S)-[2-((S)-2-aminopropanamido)]-3-(3-fluorophenyl)propanoic acid], the “activity against Ca and/or Cn confirmed” value in assay [2] is “confirmed”. For the molecule `N[C@H](Cc1ccc(O)cc1)C(=O)O` [D-Tyrosine], the “trigger for the disassembly of bacterial biofilms” value in the assay on bacterial biofilms was “particularly active”.
